In PubChem BioAssay (NCI) one finds TGI and GI50 data, which are given here for 14 molecules.

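48-hour exposure; five concentrations; linearly interpolated endpoints. Abbreviation: GI50, concentration required for 50% inhibition of growth. TGI marks complete inhibition of growth.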

What all share (test): NCI anticancer screen, dose series, 48 h
Experiment [1] concerns NCI-H522 lung.
In experiment [2] the test system is SF-539 CNS.
For experiment [3], the system named is HCC-2998 colon.
Experiment [4] concerns NCI-H23 lung.
Experiment [5] concerns SW-620 colon.
Experiment [6] has as its system SF-268 CNS.
The test system of experiment [7] is M14 melanoma.
Experiment [8] deals with SN12C renal.
For experiment [9], the system named is U251 CNS.
Experiment [10] deals with HCT-15 colon.

Regarding `CC1CC[C@]2(C(=O)O)CCC3(C)C(=CCC4[C@@]5(C)CC[C@H](OS(=O)(=O)c6ccccc6)C(C)(C)C5CC[C@]43C)[C@@H]2[C@H]1C` (stereo partly drawn), the TGI in experiment [1], in experiment [2], in [3], in experiment [4], in experiment [5] and in experiment [6] was > 100 µM in each case. In addition, the TGI in experiment [7], in experiment [8] and in [9] was > 100 µM each time.
Take `COc1ccc(OC)c2c3c(ccc12)C(c1ccccc1)OC3=O` (stereo not drawn): the TGI in experiment [1], in [3], in experiment [4], in experiment [5], in [6] and in experiment [10] was > 100 µM each time. For the same molecule, the TGI in [7], in [8] and in [9] was > 100 µM in each case.
With `COC(OC)c1cc2c(cc1C(=O)[C@@]13CCC[C@@H]1NC(=O)O3)OCO2`, the TGI in experiment [1], in [2], in [4], in [5], in [6] and in experiment [7] was > 100 µM in each case. Moreover, the TGI in experiment [8] and in experiment [9] was > 100 µM each time.
As to `COc1nc(NC2OC(COC(C)=O)C(OC(C)=O)C(OC(C)=O)C2OC(C)=O)c(-c2csc(N)n2)c(=O)n1C` (stereo not drawn), the TGI in [1], in experiment [2], in experiment [4], in experiment [5], in experiment [6] and in experiment [10] was > 100 µM throughout. Moreover, the TGI in [7], in [8] and in [9] was > 100 µM throughout.
As to `CC(NC(=O)c1ccccc1)(C(=O)O)C(=O)O`, the TGI in experiment [1], in experiment [2], in experiment [4], in experiment [5], in experiment [6] and in [10] was > 100 µM in each case. The TGI in experiment [7], in experiment [8] and in [9] was > 100 µM throughout.
`Cc1nc(-n2nc(-c3ccccc3)cc2-c2ccccc2)sc1C(/C=C/c1ccc([N+](=O)[O-])cc1)=N/NC(=O)c1ccncc1`: the TGI is 41.5 µM in experiment [2]; 26.6 µM in [3]; 40.6 µM in experiment [4]; > 100 µM in [5]; > 100 µM in [6]; 96.2 µM in experiment [10]. For the same molecule, the TGI in experiment [7] was 50.7 µM; in experiment [8], > 100 µM; in experiment [9] it was > 100 µM.
In the case of `CCN(CC)CCN(C(=O)C(C)(C)C)c1ccccc1N`, the TGI in experiment [1], in [2], in experiment [4], in experiment [5], in [6] and in experiment [10] was > 100 µM each time. Also, the TGI in experiment [7], in experiment [8] and in experiment [9] was > 100 µM throughout.
Regarding `COC1(OC)c2no[n+]([O-])c2C(OC)(OC)c2c1no[n+]2[O-]`, the TGI was found to be 47.5 µM in experiment [1]; 38 µM in experiment [2]; 41.6 µM in experiment [3]; 28.2 µM in experiment [4]; 35.8 µM in experiment [5]; 73.3 µM in experiment [6]. The figures for the TGI in experiment [10], in experiment [7] and in experiment [8] were 67.4 µM, 26.9 µM and 54 µM, respectively.
For `CCC1CNC(=O)CC1CC(=O)OC` (stereo not drawn), the TGI in experiment [1], in experiment [3], in experiment [4], in experiment [5], in [6] and in experiment [10] was > 100 µM in each case. The TGI in experiment [7], in [8] and in experiment [9] was > 100 µM throughout.
Regarding `CC1OC(OC2CCC3(C=O)C4CCC5(C)C(C6=CC(=O)OC6)CCC5(O)C4CCC3(O)C2)C(O)C(O)C1O` (stereo not drawn), the TGI amounted to 4.41e-05 µM in experiment [1]; 5.65e-05 µM in [2]; 4.11e-05 µM in experiment [4]; 8.69e-05 µM in [5]; 4.11e-05 µM in experiment [6]; 9.68e-05 µM in experiment [10]. For the same molecule, the TGI in [8] is 3.74e-05 µM; in experiment [9], 0.000156 µM.
Take `COc1cc2c(c(OC)c1OC)-c1ccc(SC)c(=O)cc1[C@@H](NC(=O)c1ccc(Cl)cc1)CC2`: the TGI in experiment [2] was < 0.01 µM; in [3] it was < 0.01 µM; in experiment [5], 41.3 µM; in experiment [6], > 100 µM; in [10] it was 0.026 µM; in experiment [7], 2.3 µM. Also, the TGI in experiment [8] was 12.7 µM; in experiment [9], < 0.01 µM.
With `COc1cccc(C2NC(=S)NC(C)=C2C(=O)Nc2ccc(Cl)c(Cl)c2)c1` (stereo not drawn), the GI50 in experiment [1] is 18.3 µM; in experiment [5], 22.3 µM; in experiment [6] it was 9.13 µM; in [10], 8.57 µM; in [7], 10.3 µM; in experiment [8], 9.14 µM. Besides, the GI50 in experiment [9] was > 50 µM. For the same molecule, the TGI was > 50 µM in [1]; > 50 µM in experiment [5]; 18.7 µM in [6]; 22.6 µM in experiment [10]; 19.3 µM in [7]; 17.1 µM in [8]. Moreover, the TGI in experiment [9] is > 50 µM.
With `C[C@@H]1C[C@]2(C[C@@H](C)C3[C@@H](CC4(C)[C@@H]5CCC6C(C)(C)OC(=O)C=C[C@]67C[C@@]5(CC[C@]34C)OO7)O2)OC1=O` (stereo partly drawn), the TGI in experiment [1] was 90.3 µM; in experiment [2], > 100 µM; in [3] it was > 100 µM; in experiment [4], > 100 µM; in [5] it was > 100 µM; in experiment [10], > 100 µM. For the same molecule, the TGI in experiment [7], in experiment [8] and in [9] was > 100 µM each time.
On to `COC(=O)CC(C(C(C)=O)C(=O)OCc1ccccc1)N1C(=O)OCC1c1ccccc1` (stereo not drawn), for which the TGI in [2], in experiment [3], in [4], in experiment [5], in experiment [6] and in experiment [10] was > 100 µM each time. Moreover, the TGI in experiment [7], in experiment [8] and in [9] was > 100 µM throughout.
